In US12459918B2, “Isoquinolinone derivatives serving as rock protein kinase inhibitors and use thereof” (GUANGZHOU OCUSUN OPHTHALMIC BIOTECHNOLOGY CO., LTD., priority 2019, dated 2025):

System: New Zealand rabbits with normal intraocular pressure
Experiment: Intraocular pressure reduction experiment in New Zealand rabbits with normal intraocular pressure
Format: in vivo
Details: for Intraocular pressure in the left eye: 20 mg/mL group, left eye (saline or solvent); for Intraocular pressure in the right eye: 20 mg/mL in right eye; for Reduction magnitude of intraocular pressure: 20 mg/mL, left minus right eye
Excerpt: Experimental Example 2. Intraocular Pressure Reduction Experiment in New Zealand Rabbits with Normal Intraocular Pressure
Rabbits with normal intraocular pressure were adopted to screen intraocular pressure reduction actions of the potential compounds by eye-drop administration.
Male New Zealand rabbits, aged 97-127 days, weighted 2.65-3.5 kg, purchased from PizhouDongfang Breeding Co. Ltd.
The male New Zealand rabbits were randomly divided into 8 rabbits/per group using a computer-generated randomization method Animals in each group were eye-dropped with different test samples in the right eye, and normal saline or solvent in the left eye, and the volume of the administration was both 50 μL/eye. The intraocular pressure of the animals was measured before administration and in 1, 2, 4, 6, 8 and 10 hours after the administration, respectively.

Cc1cn(COC(=O)c2ccccc2)c(=O)c2cccc(S(=O)(=O)N3CC[C@H](N)C3)c12 [Compound 64]
Intraocular pressure in the left eye (1 hour after administration): 11.96 mmHg | Intraocular pressure in the left eye (2 hours after administration): 9.79 mmHg | Intraocular pressure in the left eye (4 hours after administration): 11.50 mmHg | Intraocular pressure in the left eye (6 hours after administration): 11.54 mmHg | Intraocular pressure in the left eye (8 hours after administration): 11.75 mmHg | Intraocular pressure in the left eye (10 hours after administration): 11.88 mmHg | Intraocular pressure in the left eye (before administration): 11.29 mmHg | Intraocular pressure in the right eye (1 hour after administration): 11.54 mmHg | Intraocular pressure in the right eye (2 hours after administration): 7.42 mmHg | Intraocular pressure in the right eye (4 hours after administration): 7.13 mmHg | Intraocular pressure in the right eye (6 hours after administration): 7.38 mmHg | Intraocular pressure in the right eye (8 hours after administration): 7.63 mmHg | Intraocular pressure in the right eye (10 hours after administration): 9.71 mmHg | Intraocular pressure in the right eye (before administration): 12.04 mmHg | Reduction magnitude of intraocular pressure (1 hour after administration): 0.42 mmHg | Reduction magnitude of intraocular pressure (2 hours after administration): 2.37 mmHg | Reduction magnitude of intraocular pressure (4 hours after administration): 4.37 mmHg | Reduction magnitude of intraocular pressure (6 hours after administration): 4.16 mmHg | Reduction magnitude of intraocular pressure (8 hours after administration): 4.12 mmHg | Reduction magnitude of intraocular pressure (10 hours after administration): 2.17 mmHg | Reduction magnitude of intraocular pressure (before administration): −0.75 mmHg
